PMC13144739, “Global analysis of cancer cell responses to USP9X inhibition” (The EMBO Journal, 2026)
pIC50: −log10 of the molar value.

How the values were obtained:
[1] = target: T1, USP9X catalytic domain (Homo sapiens, UniProt Q93008); assay: HDX-MS; type: binding; conditions: 6 s deuterium exchange; 80 µM WEHI-092 or 30 µM FT709
T1 construct: His/SUMO (pOPIN-S vector) (N, cleaved yes); made in house; host or cells: E. coli BL21
T1 sequence (Q93008 1551-1970): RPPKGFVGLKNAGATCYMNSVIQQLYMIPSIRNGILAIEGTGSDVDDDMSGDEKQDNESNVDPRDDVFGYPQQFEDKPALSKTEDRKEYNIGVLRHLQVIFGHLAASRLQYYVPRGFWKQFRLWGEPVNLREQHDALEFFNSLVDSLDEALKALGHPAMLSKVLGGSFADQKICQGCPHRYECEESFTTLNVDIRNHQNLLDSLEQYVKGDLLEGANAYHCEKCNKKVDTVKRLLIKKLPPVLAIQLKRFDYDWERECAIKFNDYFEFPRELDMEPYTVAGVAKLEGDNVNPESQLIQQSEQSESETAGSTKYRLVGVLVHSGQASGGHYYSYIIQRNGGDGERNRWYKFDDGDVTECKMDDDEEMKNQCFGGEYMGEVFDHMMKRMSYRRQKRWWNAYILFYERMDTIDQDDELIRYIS
Protocol: Deuterium labelling of USP9X catalytic domain was performed as described previously (Asadollahi et al, [2023]) at 20 °C for periods of 0, 6, 60, 6000 s using a PAL Dual Head HDX Automation manager (Trajan/LEAP) controlled by the ChronosHDX software. […] Quenching was performed by adding 50 µL of the protein mix to 50 µL of quench buffer (50 mM potassium phosphate buffer [pH 2.3], 4 M guanidine hydrochloride and 0.1% [v/v] n-dodecylphosphocholine) at 1 °C. […] To further reduce peptide carryover, n-octyl-β-d-glucopyranoside at 1% (w/w) was added to the pepsin column wash solution (1.5 M guanidine hydrochloride, 4% [v/v] acetonitrile [ACN], 0.8% [v/v] FA). […] For MS, an ion mobility equipped SYNAPT G2-Si mass spectrometer (Waters) was used. Instrument settings were: 3.0 KV capillary and 40 V sampling cone with source and desolvation temperatures of 100 °C and 40 °C, respectively. The desolvation and cone gas flow were at 80 L/h and 100 L/h, respectively. High-energy ramp trap collision energy was from 20 to 40 V. All mass spectra were acquired using a 0.4 s scan time with continuous lock mass (Leu-Enk, 556.2771 m/z) for mass accuracy correction. […] The deuterium uptake values were calculated for each peptide using DynamX 3.0 (Waters). […]

[2] = system: HUVEC; assay: Colony formation assay, HUVEC; type: cell-based, human; conditions: 10 µM, 7–12 days
Protocol: Cells were seeded at low density (200–4000 cells per well) after initial optimisation in a six-well tissue culture-treated plate (Falcon). Twenty-four hours post seeding, media was replaced, and the inhibitor was added. Cells were left to grow into colonies between 7 and 12 days, depending on the cell line. For analysis, the media was removed, and the cells were fixed with 10% (w/v) formalin for 10 min. Colonies were stained with crystal violet (Sigma-Aldrich, 0.5% [w/v] in 20% [v/v] MeOH) for 10 min and washed thrice with distilled H2O. Plates were imaged using the ChemiDoc imaging system (Bio-Rad) and analysed using the ImageJ ColonyArea plugin as described previously (Guzmán et al, [2014]).

[3] = target: T2, USP9X Δβ (USP9X β-hairpin deletion) (Homo sapiens, UniProt Q93008, DEL1924-1943); assay: Ub-Rho cleavage assay, USP9X Δβ variant; type: biochemical
T2 construct: His/SUMO (pOPIN-S vector) (N, cleaved yes); made in house; host or cells: E. coli BL21
T2 sequence (Q93008 with tags, fused parts or gaps DEL1924-1943): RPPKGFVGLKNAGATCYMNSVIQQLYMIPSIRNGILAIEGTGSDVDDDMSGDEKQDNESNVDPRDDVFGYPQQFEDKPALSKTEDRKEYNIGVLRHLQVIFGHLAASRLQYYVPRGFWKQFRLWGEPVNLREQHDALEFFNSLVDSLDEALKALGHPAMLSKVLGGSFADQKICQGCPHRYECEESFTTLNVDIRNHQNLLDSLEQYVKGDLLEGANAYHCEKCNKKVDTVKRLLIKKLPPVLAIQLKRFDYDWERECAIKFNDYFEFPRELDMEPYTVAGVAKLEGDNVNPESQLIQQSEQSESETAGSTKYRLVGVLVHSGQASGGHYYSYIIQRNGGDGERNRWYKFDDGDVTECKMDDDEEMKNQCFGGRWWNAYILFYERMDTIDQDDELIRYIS
Source text: An expression construct for the USP9X catalytic domain (aa 1551–1970, […]: Q93008-1), was codon optimised for bacterial expression, synthesised in gBlock format (Integrated DNA Technologies) and cloned into the pOPIN-S vector (Berrow et al, [2007]), which was digested with KpnI and HindIII using In-Fusion™ HD cloning (Takara Clontech). […] For the USP9X Δβ catalytic domain a deletion construct ΔE1924-K1943 and for USP9X/USP24 chimera, a construct with USP9X Y1757-A1766 replaced with the USP24 (NCBI Reference Sequence: NP_056121) aa motif […] was used. All constructs were confirmed by Sanger sequencing (AGRF).
The reaction was stopped through the addition of 10 mM citric acid. The assay was performed in 384-well format with a total reaction volume of 16 µL. Data was collected using the ClarioSTAR plate reader (BMG Labtech) at an emission of 535 nm. […] IC50 values presented in our study are the mean of three independent biological repeats unless indicated otherwise.

[4] = target: T1, USP9X catalytic domain; assay: K48-linked di-ubiquitin cleavage assay; type: biochemical; conditions: 50 µM compound
Protocol: For inhibitor activity assays, USP9X catalytic domain (di-ubiquitin cleavage assay: 750 nM, ubiquitin-probe assays: 2.5 µM) was pre-incubated with USP9X inhibitors for 30 min at ambient temperature and subsequently mixed with di-ubiquitin (final concentration 2 µM) in assay buffer (25 mM Tris [pH 8.0], 150 mM NaCl, 10 mM DTT) at pH 8.0 or was mixed with ubiquitin-propargylamide (Ub-PA)/ubiquitin-vinyl sulfonate (Ub-VS) probes at a final concentration of 10 µM in assay buffer. For both assays, the mixture was incubated over a time course, and the reaction was stopped by mixing samples with 2× LDS sample buffer (Invitrogen) supplemented with 3% (v/v) 2-mercaptoethanol. All protein samples were run on a 4–12% Bis-Tris SDS-PAGE gradient gel (Invitrogen) for 60 min at 140 V. The gel was stained with InstantBlue® (Abcam) and imaged.

[5] = system: USP24; assay: DUBprofiler DUB selectivity panel, USP24; type: biochemical, human; conditions: 50 µM compound
Protocol: UAF1 was added to the USP1, USP12 and USP46 reactions (with WDR20 additionally added to the USP12 and USP46 reactions), respectively. Ubiquitin was added to the USP5 reaction at KD. Proteasome-VS was added to the USP14 reaction at KD. OTUD5 p177S was used. The reaction for AMSH-LP was supplemented with Zinc.

[6] = system: CEP55, MKRN2, EDF1, CHMP2B, DTX3L; assay: Immunoblotting of commonly depleted USP9X substrates; type: cell-based, human; conditions: MiaPaca2 and SK-MEL-2, 24 h; rescued with proteasomal inhibition (MG132)
Protocol: The next day, cells were lysed in DISC lysis buffer (20 mM TRIS/HCl [pH 7.5], 150 mM NaCl, 2 mM EDTA [pH 8.0], 1% [v/v] Triton X 100, 10% [v/v] glycerol) supplemented with 2% (w/v) SDS and PhosSTOP tablets (Roche). To shred DNA, DISC lysates were run through polypropylene columns (Pierce). […] Next, membranes were washed twice in TBS-T and incubated with primary antibodies at 4 °C o/n. Primary antibodies were diluted in antibody dilution buffer (5% [w/v] BSA [pH 5.2, Sigma-Aldrich] in TBS-T with 0.04% [v/v] sodium azide) as per the manufacturer’s instructions. […] Next, membranes were washed four times for 5 min each in TBS-T. Membranes were developed in ECL (Bio-Rad) and imaged using the ChemiDoc imaging system (Bio-Rad). Images were processed using Image Lab software.

`Cc1[nH]c2ccc(C(=O)N3CCN(S(=O)(=O)c4ccc5c(c4)OCCO5)CC3)cc2c1C` [WEHI-092] was tested, and the “changes in hydrogen-deuterium uptake upon compound binding” value [1] was “protection of five overlapping peptides that included residues 1757-1762”, the “clonogenic potential, HUVEC” value [2] was “limited or no effects” and the pIC50 [3] was 6.61. For the same molecule, the “cleavage of K48-linked di-ubiquitin” value [4] was “inhibited cleavage of K48-linked di-ubiquitin”, the “inhibition of USP24, commercial panel” value [5] was “not inhibited” and the “MKRN2, CHMP2B and DTX3L protein levels (Western Blot)” value [6] was “led to protein depletion”.
